# Laboratory results published in patent US9713648B2, “Weekly dosing regimens for anti-CD30 VC-PAB-MMAE antibody drug-conjugates” (Seattle Genetics, Inc., priority 2009, dated 2017).
# Tests used:
# Type in all cases: in vivo, human
# [1] = tested on: refractory or relapsed HL or systemicALCL; experiment: Phase 1 weekly dosing, dose escalation study: best clinical response, all evaluable patients; conditions: for Best Clinical Response: CR / Best Clinical Response: PD / Best Clinical Response: PR / Best Clinical Response: SD: number of patients
# Procedure: (§1) A multicenter, phase 1, weekly dosing, dose escalation study was conducted in pts with refractory or relapsed HL or systemicALCL. The cAC10-MC-vc-PAB-MMAE antibody drug conjugate was administered weekly at doses of 0.4-1.4 mg/kg (2-hr IV infusions). Patients with […] or better after two 21-day cycles (6 doses) were eligible to continue treatment with the antibody drug conjugate.
# (§2) Results: In 34 patients, median age was 34 yrs (range 13-82). Patients received a median of 5 prior therapies; 62% received an autologous SCT. MTD was exceeded at 1.4 mg/kg.
# [2] = tested on: HL; experiment: Phase 1 weekly dosing study: response rate in HL patients; conditions: weekly 0.4-1.4 mg/kg
# Procedure: as §1, §2
# [3] = tested on: sALCL; experiment: Phase 1 weekly dosing study: response rate in sALCL patients; conditions: sALCL patients (4/5), weekly 0.4-1.4 mg/kg
# Procedure: as §1, §2
# [4] = Phase 1 weekly dosing study: tolerability, adverse events, MTD/DLT
# Procedure: as §1
# The grade 4 events were neutropenia (1 subject), and hyperglycemia (1). The grade 3 events were neutropenia (3), diarrhea (1), paresthesia (1), vomiting (1), and leucopenia (1). The grade 2 or lower adverse events were nausea (9), fatigue (8), peripheral neuropathy (6), neutropenia (2), dizziness (4), hyperglycemia (3), and paresthesia (3). The dose limiting toxicity was at 1.4 mg/kg.
# [5] = Phase 1 weekly dosing study: exposure (AUC); conditions: weekly doses of 0.4-1.4 mg/kg
# Procedure: as §1, §2
# [6] = Total of all dose groups 0.4-1.4 mg/kg, N=27
# [7] = dose group 0.6 mg/kg weekly, N=3
# [8] = dose group 1.0 mg/kg weekly, N=6
# [9] = dose group 1.2 mg/kg weekly, N=5
# [10] = dose group 1.4 mg/kg weekly, N=3
# [11] = number of subjects among 34 treated patients
substance,measurement,setting,value
cAC10-MC-vc-PAB-MMAE: chimeric AC10 antibody conjugated to the drug MMAE through a MC-vc-PAB linker; anti-CD30 antibody-drug conjugate,observed time to response,"[1]; 1 mg/kg dose, weekly",approximately 8 wks
same,Complete Response,"[1]; All Patients (10/27), weekly 0.4-1.4 mg/kg",37% (10/27)
same,Overall Response Rate (CR + PR),"[1]; All Patients (13/27), weekly 0.4-1.4 mg/kg",48% (13/27)
same,Tumor Reductions,"[1]; All Patients (22/27), weekly 0.4-1.4 mg/kg",81% (22/27)
same,CRs observed,[1]; at higher doses,Multiple
same,Best Clinical Response: CR,[1]; [6],10 ^
same,Best Clinical Response: PD,[1]; [6],3
same,Best Clinical Response: PR,[1]; [6],3
same,Best Clinical Response: SD,[1]; [6],22
same,Best Clinical Response: SD,"[1]; dose group 0.4 mg/kg weekly, N=4, includes 1 patient with ALCL",4^+
same,Best Clinical Response: PD,[1]; [7],1
same,Best Clinical Response: PR,[1]; [7],1
same,Best Clinical Response: SD,[1]; [7],1
same,Best Clinical Response: PD,"[1]; dose group 0.8 mg/kg weekly, N=6",1
same,Best Clinical Response: SD,"[1]; dose group 0.8 mg/kg weekly, N=6, 1 pediatric patient",1^P
same,Best Clinical Response: CR,"[1]; dose group 0.8 mg/kg weekly, N=6, includes 2 patients with ALCL",4^++
same,Best Clinical Response: PR,[1]; [8],1
same,Best Clinical Response: SD,[1]; [8],1
same,Best Clinical Response: CR,"[1]; dose group 1.0 mg/kg weekly, N=6, includes 2 patients with ALCL",4^++
same,Best Clinical Response: PD,[1]; [9],1
same,Best Clinical Response: PR,[1]; [9],1
same,Best Clinical Response: SD,"[1]; dose group 1.2 mg/kg weekly, N=5, includes 1 pediatric patient",3^P
same,Best Clinical Response: CR,[1]; [10],2^
same,Best Clinical Response: SD,[1]; [10],1
same,time within which multiple complete responses were observed,"[1]; phase I study, weekly regimen",≤ 8 weeks
same,Complete Response,[2]; HL Patients (6/22),27% (6/22)
same,Overall Response Rate (CR + PR),[2]; HL Patients (9/22),41% (9/22)
same,Complete Response,[3],80% (4/5)
same,Overall Response Rate (CR + PR),[3],80% (4/5)
same,grade 5 events,[4]; 34 treated patients,no grade 5 events
same,tolerability,[4]; 34 treated patients,generally well tolerated
same,grade 2 or lower adverse events: dizziness,[4]; [11],4
same,grade 2 or lower adverse events: fatigue,[4]; [11],8
same,grade 2 or lower adverse events: hyperglycemia,[4]; [11],3
same,grade 2 or lower adverse events: nausea,[4]; [11],9
same,grade 2 or lower adverse events: neutropenia,[4]; [11],2
same,grade 2 or lower adverse events: paresthesia,[4]; [11],3
same,grade 2 or lower adverse events: peripheral neuropathy,[4]; [11],6
same,grade 3 events: diarrhea,[4]; [11],1
same,grade 3 events: leucopenia,[4]; [11],1
same,grade 3 events: neutropenia,[4]; [11],3
same,grade 3 events: paresthesia,[4]; [11],1
same,grade 3 events: vomiting,[4]; [11],1
same,grade 4 events: hyperglycemia,[4]; [11],1
same,grade 4 events: neutropenia,[4]; [11],1 subject
same,dose limiting toxicity (dose at which it occurred),[4]; weekly dosing,1.4 mg/kg
same,MTD (exceeded at),"[4]; weekly dosing, 2-hr IV infusions, 34 patients",< 1.4 mg/kg
same,Exposure (AUC),[5],increased relative to dose level
